From patent US20250197374A1, “WEE1 DEGRADING COMPOUNDS AND USES THEREOF” (BRISTOL-MYERS SQUIBB COMPANY, priority 2023, published 2025)

What was measured:
Assay type in all cases: cell-based
MDA-MB-231 cells = test: MDA-MB-231 cell proliferation assay (Cell-Titer-Glo, 120 hr); settings: for EC50: Homo sapiens, MDA-MB-231, 120 h, read-out: MDA-MB 231 Cell Prolif. 120 hr EC50; for MDA-MB 231 Cell Prolif. 120 hr YMin (%): minimal percent of DMSO control observed
How it was run: (§1)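 MKN45 (400/well) and MDA-MB-231 (800/well) cells in RPMI with 10% FBS were exposed to 10-point half-log doses from 1 or 10 uM (0.1% DMSO) for 120 h at 37 °C. Viability was read by CellTiter-Glo luminescence. EC50 came from blank-subtracted, %DMSO four-parameter fits, with Ymin-obs as the lowest %DMSO observed.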

MKN45 cells = test: MKN45 cell proliferation assay (Cell-Titer-Glo, 120 hr); settings: for MKN45 Cell Prolif. 120 hr YMin (%): minimal percent of DMSO control observed; for EC50: Homo sapiens, MKN-45, 120 h, read-out: MKN45 Cell Prolif. 120 hr EC50
How it was run: as §1

WEE1 = target: T1, WEE1 (Homo sapiens, UniProt P30291+Q96SW2); test: WEE1-ePL degradation assay (293T-LentiX, InCELL Hunter luminescence, 4 hr); settings: for 293T-LentiX WEE1-ePL Degradation 4 hr YMin (%): lower limit of fit, % of DMSO control signal remaining; for DC50: LentiX-HEK293T cells expressing WEE1-ePL, 4 hr incubation, read-out: 293T-LentiX WEE1-ePL Degradation 4 hr EC50
T1 construct: C-terminal ePL-tagged (DiscoverX, Fremont, CA) full-length WEE1 expression construct; expressed in transfected cells; host or cells: LentiX-HEK293T (Invitrogen), lentivirally transduced; the cells also over-express GSPT1-GN
T1 sequence (P30291 whole entry): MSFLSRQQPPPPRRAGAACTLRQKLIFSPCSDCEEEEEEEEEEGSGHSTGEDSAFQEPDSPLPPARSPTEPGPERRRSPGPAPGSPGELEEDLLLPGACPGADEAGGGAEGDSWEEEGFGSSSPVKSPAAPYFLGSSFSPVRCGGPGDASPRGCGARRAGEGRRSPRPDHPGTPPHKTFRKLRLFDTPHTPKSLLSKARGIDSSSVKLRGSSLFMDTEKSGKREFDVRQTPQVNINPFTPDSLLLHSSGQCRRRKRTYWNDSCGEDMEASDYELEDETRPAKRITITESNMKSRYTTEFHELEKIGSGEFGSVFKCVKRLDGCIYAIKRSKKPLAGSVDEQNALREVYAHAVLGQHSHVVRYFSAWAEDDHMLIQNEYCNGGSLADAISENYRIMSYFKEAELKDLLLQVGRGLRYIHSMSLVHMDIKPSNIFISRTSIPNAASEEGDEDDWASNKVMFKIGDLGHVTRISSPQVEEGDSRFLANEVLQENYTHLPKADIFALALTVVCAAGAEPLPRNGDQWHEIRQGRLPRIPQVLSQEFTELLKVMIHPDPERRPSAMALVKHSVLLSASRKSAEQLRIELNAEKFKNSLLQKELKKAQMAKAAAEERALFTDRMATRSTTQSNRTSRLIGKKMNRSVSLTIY
T1 sequence (Q96SW2 whole entry): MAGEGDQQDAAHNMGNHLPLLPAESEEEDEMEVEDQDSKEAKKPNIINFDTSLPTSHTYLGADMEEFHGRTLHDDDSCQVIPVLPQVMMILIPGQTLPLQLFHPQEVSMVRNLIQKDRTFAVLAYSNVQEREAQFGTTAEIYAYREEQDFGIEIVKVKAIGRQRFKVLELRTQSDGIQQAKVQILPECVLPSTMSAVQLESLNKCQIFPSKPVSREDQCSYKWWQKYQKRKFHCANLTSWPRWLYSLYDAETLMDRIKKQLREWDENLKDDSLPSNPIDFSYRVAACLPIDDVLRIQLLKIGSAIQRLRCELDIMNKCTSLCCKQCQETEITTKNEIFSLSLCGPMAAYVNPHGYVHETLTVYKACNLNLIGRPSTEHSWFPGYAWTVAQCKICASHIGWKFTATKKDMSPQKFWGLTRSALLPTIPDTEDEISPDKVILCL
T1 sequence (Q16531 whole entry partner): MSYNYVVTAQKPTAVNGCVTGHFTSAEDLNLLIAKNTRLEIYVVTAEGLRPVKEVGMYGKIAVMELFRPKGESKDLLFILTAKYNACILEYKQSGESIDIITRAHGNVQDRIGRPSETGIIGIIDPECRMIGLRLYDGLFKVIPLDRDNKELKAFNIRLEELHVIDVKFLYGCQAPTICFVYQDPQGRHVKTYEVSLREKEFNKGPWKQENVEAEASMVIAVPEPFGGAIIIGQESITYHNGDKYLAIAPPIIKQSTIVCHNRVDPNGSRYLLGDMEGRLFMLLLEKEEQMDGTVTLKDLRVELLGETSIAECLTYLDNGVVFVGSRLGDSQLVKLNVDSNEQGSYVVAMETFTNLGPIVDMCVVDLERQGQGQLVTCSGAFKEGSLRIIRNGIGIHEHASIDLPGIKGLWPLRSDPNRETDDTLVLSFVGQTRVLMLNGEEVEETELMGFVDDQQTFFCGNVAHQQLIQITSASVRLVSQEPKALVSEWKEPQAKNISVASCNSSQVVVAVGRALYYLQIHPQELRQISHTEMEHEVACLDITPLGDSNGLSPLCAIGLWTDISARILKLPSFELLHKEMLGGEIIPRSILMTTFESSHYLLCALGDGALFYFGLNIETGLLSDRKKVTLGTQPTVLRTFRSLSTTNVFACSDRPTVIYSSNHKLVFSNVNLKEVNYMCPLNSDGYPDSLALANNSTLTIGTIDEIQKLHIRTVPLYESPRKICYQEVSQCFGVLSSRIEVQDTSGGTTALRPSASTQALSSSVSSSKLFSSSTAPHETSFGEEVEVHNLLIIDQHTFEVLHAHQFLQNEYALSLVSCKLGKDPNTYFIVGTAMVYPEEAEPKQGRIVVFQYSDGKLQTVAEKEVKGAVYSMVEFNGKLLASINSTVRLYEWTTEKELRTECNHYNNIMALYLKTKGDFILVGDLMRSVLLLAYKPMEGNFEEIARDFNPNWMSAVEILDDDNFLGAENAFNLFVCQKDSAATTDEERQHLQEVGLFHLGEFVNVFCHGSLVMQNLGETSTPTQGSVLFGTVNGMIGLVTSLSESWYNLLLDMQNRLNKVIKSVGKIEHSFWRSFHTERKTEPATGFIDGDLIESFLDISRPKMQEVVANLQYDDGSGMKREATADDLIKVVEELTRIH
How it was run: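 LentiX-HEK293T cells expressing C-terminally ePL-tagged full-length WEE1 plus non-degradable GSPT1-GN (G575N, N-terminal 158 aa truncated). Treated 4 h at 37 °C with a 10-point, 3-fold series from 1 or 10 µM, then read by InCELL Hunter luminescence. EC50 from four-parameter logistic fit, Ymax set by DMSO control.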

EC50 (MDA-MB-231 cells) [nM] | 293T-LentiX WEE1-ePL Degradation 4 hr YMin (%) (WEE1) | EC50 (MKN45 cells) [nM] | DC50 (WEE1) [nM] | SMILES | MDA-MB 231 Cell Prolif. 120 hr YMin (%) (MDA-MB-231 cells) | MKN45 Cell Prolif. 120 hr YMin (%) (MKN45 cells)
12 | 27.3 |  |  | COC[C@@H]1CN(Cc2cc(F)c3nc(N4CCC(C(C)(C)O)CC4)ccc3c2)C[C@H]1Oc1ccc2c(c1)CN([C@H]1CCC(=O)NC1=O)C2=O [Example 110, (3S)-3-(5-{[(3S,4S)-1-({8-fluoro-2-[4-(2-hydroxypropan-2-yl)piperidin-1-yl]quinolin-6-yl}methyl)-4-(methoxymethyl)pyrrolidin-3-yl]oxy}-1-oxo-2,3-dihydro-1H-isoindol-2-yl)piperidine-2,6-dione] | 17.4 | 6.8
98 | 29.5 | 4 | 9 | COC[C@@H]1CN(Cc2ccc3nc(N4CCN(C5CN(C)C5)CC4)ccc3c2)C[C@H]1Oc1ccc2c(c1)CN([C@H]1CCC(=O)NC1=O)C2=O [Example 113, (3S)-3-(5-{[(3S,4S)-4-(methoxymethyl)-1-({2-[4-(1-methylazetidin-3-yl)piperazin-1-yl]quinolin-6-yl}methyl)pyrrolidin-3-yl]oxy}-1-oxo-2,3-dihydro-1H-isoindol-2-yl)piperidine-2,6-dione] | 55.3 | 9.0
14 | 29.7 | 1 |  | COC[C@@H]1CN(Cc2ccc3nc(C4CCN(C5COC5)CC4)ccc3c2)C[C@H]1Oc1ccc2c(c1)CN([C@H]1CCC(=O)NC1=O)C2=O [Example 114, (3S)-3-(5-{[(3S,4S)-4-(methoxymethyl)-1-({2-[1-(oxetan-3-yl)piperidin-4-yl]quinolin-6-yl}methyl)pyrrolidin-3-yl]oxy}-1-oxo-2,3-dihydro-1H-isoindol-2-yl)piperidine-2,6-dione] | 47.4 | 8.6
213 | 21.5 | 9 | 6 | COC[C@@H]1CN(Cc2cc3ccc(C(=O)N(C)C)cc3cn2)C[C@H]1Oc1ccc2c(c1)CN([C@H]1CCC(=O)NC1=O)C2=O [Example 115, 3-{[(3S,4S)-3-({2-[(3S)-2,6-dioxopiperidin-3-yl]-1-oxo-2,3-dihydro-1H-isoindol-5-yl}oxy)-4-(methoxymethyl)pyrrolidin-1-yl]methyl}-N,N-dimethyliso-quinoline-7-carboxamide] | 41.5 | 9.4
31 | 27.5 | 4 | 2 | COC[C@@H]1CN(Cc2cc(F)c3nc(C(=O)N(C)C4CCOCC4)ccc3c2)C[C@H]1Oc1ccc2c(c1)CN([C@H]1CCC(=O)NC1=O)C2=O [Example 117, 6-{[(3S,4S)-3-({2-[(3S)-2,6-dioxopiperidin-3-yl]-1-oxo-2,3-dihydro-1H-isoindol-5-yl}oxy)-4-(methoxymethyl)pyrrolidin-1-yl]methyl}-8-fluoro-N-methyl-N-(oxan-4-yl)quinoline-2-carboxamide] | 40.1 | 9.1
67 | 23.6 |  |  | COC[C@@H]1CN(Cc2cc(F)c3nc(C45CCC(C(C)(C)O)(CC4)CC5)ccc3c2)C[C@H]1Oc1ccc2c(c1)CN([C@H]1CCC(=O)NC1=O)C2=O [Example 119, (S)-3-(5-(((3S,4S)-1-((8-fluoro-2-(4-(2-hydroxypropan-2-yl)bicyclo[2.2.2]octan-1-yl)quinolin-6-yl)methyl)-4-(methoxymethyl)pyrrolidin-3-yl)oxy)-1-oxoisoindolin-2-yl)piperidine-2,6-dione] | 1.7 | 6.8
63 | 17.2 | 2 | 4 | COC[C@@H]1CN(Cc2cc(F)c3nc(C4CN(CC(C)(C)O)C4)ccc3c2)C[C@H]1Oc1ccc2c(c1)CN([C@H]1CCC(=O)NC1=O)C2=O [Example 120, (3S)-3-(5-{[(3S,4S)-1-({8-fluoro-2-[1-(2-hydroxy-2-methylpropyl)azetidin-3-yl]quinolin-6-yl}methyl)-4-(methoxymethyl)pyrrolidin-3-yl]oxy}-1-oxo-2,3-dihydro-1H-isoindol-2-yl)piperidine-2,6-dione] | 30.0 | 7.8
26 | 18.7 |  |  | COC[C@@H]1CN(Cc2cc(F)c3nc(C45C6C7C4C4C5C6C74C(C)(C)O)ccc3c2)C[C@H]1Oc1ccc2c(c1)CN([C@H]1CCC(=O)NC1=O)C2=O (stereo partly drawn) [Example 121, (S)-3-(5-(((3S,4S)-1-((8-fluoro-2-(4-(2-hydroxypropan-2-yl)cuban-1-yl)quinolin-6-yl)methyl)-4-(methoxymethyl)pyrrolidin-3-yl)oxy)-1-oxoisoindolin-2-yl)piperidine-2,6-dione] | 13.2 | 7.5
23 | 22.0 | 2 | 2 | COC[C@@H]1CN(Cc2ccc3nc(C4CCN(C5CN(C)C5)CC4)ccc3c2)C[C@H]1Oc1ccc2c(c1)CN([C@H]1CCC(=O)NC1=O)C2=O [Example 122, (3S)-3-(5-{[(3S,4S)-4-(methoxymethyl)-1-({2-[1-(1-methylazetidin-3-yl)piperidin-4-yl]quinolin-6-yl}methyl)pyrrolidin-3-yl]oxy}-1-oxo-2,3-dihydro-1H-isoindol-2-yl)piperidine-2,6-dione] | 59.3 | 8.5
127 | 30.5 | 11 | 1 | COC[C@@H]1CN(Cc2ccc3nc(C4CCOCC4)ccc3n2)C[C@H]1Oc1ccc2c(c1)CN([C@H]1CCC(=O)NC1=O)C2=O [Example 128, (3S)-3-(5-{[(3S,4S)-4-(methoxymethyl)-1-{[6-(oxan-4-yl)-1,5-naphthyridin-2-yl]methyl}pyrrolidin-3-yl]oxy}-1-oxo-2,3-dihydro-1H-isoindol-2-yl)piperidine-2,6-dione] | 83.3 | 18.2
319 | 26.0 | 10 | 2 | COC[C@@H]1CN(Cc2cnc3nc(C4CCOCC4)ccc3c2)C[C@H]1Oc1ccc2c(c1)CN([C@H]1CCC(=O)NC1=O)C2=O [Example 129, (3S)-3-(5-{[(3S,4S)-4-(methoxymethyl)-1-{[7-(oxan-4-yl)-1,8-naphthyridin-3-yl]methyl}pyrrolidin-3-yl]oxy}-1-oxo-2,3-dihydro-1H-isoindol-2-yl)piperidine-2,6-dione] | 80.6 | 10.6
1420 | 32.0 | 108 | 37 | COC[C@@H]1CN(Cc2cnc3nc(C4CCOCC4)ncc3c2)C[C@H]1Oc1ccc2c(c1)CN([C@H]1CCC(=O)NC1=O)C2=O [Example 134, (3S)-3-(5-{[(3S,4S)-4-(methoxymethyl)-1-{[2-(oxan-4-yl)pyrido[2,3-d]pyrimidin-6-yl]methyl}pyrrolidin-3-yl]oxy}-1-oxo-2,3-dihydro-1H-isoindol-2-yl)piperidine-2,6-dione] | 75.6 | 12.9
31 | 35.7 | 1 | 1 | COC[C@@H]1CN(Cc2cc3ccc(C4CCOCC4)nc3cn2)C[C@H]1Oc1ccc2c(c1)CN([C@H]1CCC(=O)NC1=O)C2=O [Example 135, (3S)-3-(5-{[(3S,4S)-4-(methoxymethyl)-1-{[2-(oxan-4-yl)-1,7-naphthyridin-6-yl]methyl}pyrrolidin-3-yl]oxy}-1-oxo-2,3-dihydro-1H-isoindol-2-yl)piperidine-2,6-dione] | 55.6 | 8.8
287 | 31.9 | 41 | 2 | COC[C@@H]1CN(Cc2ccc3nc(C4CCOCC4)cnc3c2)C[C@H]1Oc1ccc2c(c1)CN([C@H]1CCC(=O)NC1=O)C2=O [Example 136, (3S)-3-(5-{[(3S,4S)-4-(methoxymethyl)-1-{[2-(oxan-4-yl)quinoxalin-6-yl]methyl}pyrrolidin-3-yl]oxy}-1-oxo-2,3-dihydro-1H-isoindol-2-yl)piperidine-2,6-dione] | 91.8 | 26.6
